Data as given in US20050197350A1, “Novel quinoline, tetrahydroquinazoline, and pyrimidine derivatives and methods of treatment related to the use thereof” (TAISHO PHARMACEUTICAL CO., LTD., priority 2003, published 2005).

Molecular target: MCH receptor (Homo sapiens, UniProt Q99705)
Assay: High throughput functional screening FLIPR/FDSS6000 (intracellular Ca2+ evoked by MCH)
Type: cell-based
Conditions: FLIPR/FDSS, antagonist activity vs 50 nM MCH; class by percent of control at 10^−7 M or IC50; read-out: class
Procedure, shortened: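 For antagonist testing, compound-treated cells (30 min, 37 °C) were stimulated with 50 nM MCH and intracellular Ca2+ followed by Fluo4 fluorescence on FLIPR/FDSS6000. Receptor was a constitutively active, non-endogenous MCH receptor; dye loading 4 μM Fluo4-AM, 1 h, 37 °C.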

Row | SMILES | IC50 [nM]
1 | Cc1cc(N(C)C)nc(N[C@H]2CC[C@@H](NC(=O)NC(C)(C)c3ccc(Cl)cc3)CC2)n1 [Example 3265, N-[1-(4-chlorophenyl)-1-methylethyl]-N′-(cis-4-{[4-(dimethylamino)-6-methylpyrimidin-2-yl]amino}cyclohexyl)urea] | 50 to 200
2 | Cc1cnc(N[C@H]2CC[C@@H](NC(=O)NC3(c4ccc(Cl)cc4)CC3)CC2)nc1N(C)C [Example 3266, N-[1-(4-chlorophenyl)cyclopropyl]-N′-(cis-4-{[4-(dimethylamino)-5-methylpyrimidin-2-yl]amino}cyclohexyl)urea] | < 50
3 | Cc1cc(N(C)C)nc(N[C@H]2CC[C@@H](NC(=O)NC3(c4ccc(Cl)cc4)CC3)CC2)n1 [Example 3267, N-[1-(4-chlorophenyl)cyclopropyl]-N′-(cis-4-{[4-(dimethylamino)-6-methylpyrimidin-2-yl]amino}cyclohexyl)urea] | < 50
4 | Cc1cc(N(C)C)nc(N[C@H]2CC[C@@H](NC(=O)N(C)C(C)(C)c3cc(C(F)(F)F)cc(C(F)(F)F)c3)CC2)n1 [Example 3268, N-{1-[3,5-bis(trifluoromethyl)phenyl]-1-methylethyl}-N′-(cis-4-{[4-(dimethylamino)-6-methylpyrimidin-2-yl]amino}cyclohexyl)-N-methylurea] | > 200
5 | Cc1cnc(N[C@H]2CC[C@@H](NC(=O)N(C)C(C)(C)c3ccc(Cl)cc3)CC2)nc1N(C)C [Example 3269, N-[1-(4-chlorophenyl)-1-methylethyl]-N′-(cis-4-{[4-(dimethylamino)-5-methylpyrimidin-2-yl]amino}cyclohexyl)-N-methylurea] | < 50
6 | Cc1cc(N(C)C)nc(N[C@H]2CC[C@@H](NC(=O)N(C)C(C)(C)c3ccc(Cl)cc3)CC2)n1 [Example 3270, N-[1-(4-chiorophenyl)-1-methylethyl]-N′-(cis-4-{[4-(dimethylamino)-6-methylpyrimidin-2-yl]amino}cyclohexyl)-N-methylurea] | 50 to 200
7 | Cc1cnc(N[C@H]2CC[C@@H](NC(=O)N(C)C3(c4ccc(Cl)cc4)CC3)CC2)nc1N(C)C [Example 3271, N-[1-(4-chlorophenyl)cyclopropyl]-N′-(cis-4-{[4-(dimethylamino)-5-methylpyrimidin-2-yl]amino}cyclohexyl)-N-methylurea] | 50 to 200
8 | Cc1cc(N(C)C)nc(N[C@H]2CC[C@@H](NC(=O)N(C)C3(c4ccc(Cl)cc4)CC3)CC2)n1 [Example 3272, N-[1-(4-chlorophenyl)cyclopropyl]-N′-(cis-4-{[4-(dimethylamino)-6-methylpyrimidin-2-yl]amino}cyclohexyl)-N-methylurea] | > 200
9 | Cc1cnc(N[C@H]2CC[C@@H](C(=O)NC(C)(C)c3ccc(Cl)cc3)CC2)nc1N(C)C [Example 3273, cis-N-[1-(4-chlorophenyl)-1-methylethyl]-4-{[4-(dimethylamino)-5-methylpyrimidin-2-yl]amino}cyclohexanecarboxamide] | 50 to 200
10 | Cc1cc(N(C)C)nc(N[C@H]2CC[C@@H](C(=O)NC(C)(C)c3ccc(Cl)cc3)CC2)n1 [Example 3274, cis-N-[1-(4-chlorophenyl)-1-methylethyl]-4-{[4-(dimethylamino)-6-methylpyrimidin-2-yl]amino}cyclohexanecarboxamide] | > 200
11 | Cc1cc(N(C)C)nc(N[C@H]2CC[C@@H](C(=O)NC(C)(C)c3cc(C(F)(F)F)cc(C(F)(F)F)c3)CC2)n1 [Example 3275, cis-N-{1-[3,5-bis(trifluoromethyl)phenyl]-1-methylethyl}-4-{[4-(dimethylamino)-6-methylpyrimidin-2-yl]amino}cyclohexanecarboxamide] | > 200
12 | COc1nc(N[C@H]2CC[C@@H](NC(=O)c3ccc(Cl)cc3)CC2)ncc1C [Example 3276, 4-chloro-N-{cis-4-[(4-methoxy-5-methylpyrimidin-2-yl)amino]cyclohexyl}benzamide] | > 200
13 | COc1nc(N[C@H]2CC[C@@H](NC(=O)c3ccc(OC(F)(F)F)cc3)CC2)ncc1C [Example 3277, N-{cis-4-[(4-methoxy-5-methylpyrimidin-2-yl)amino]cyclohexyl}-4-(trifluoromethoxy)benzamide] | > 200
